From patent US20230167088A1, “1-PYRAZINYLPYRAZOLYL-3-OXYALKYL ACIDS AND THEIR DERIVATIVES, AND THEIR USE FOR CONTROL OF UNDESIRED PLANT GROWTH” (BAYER AKTIENGESELLSCHAFT, priority 2020, published 2023)

Legend:
ALOMY = assay: Herbicidal post-emergence action 1a (greenhouse pots, visual rating); type: in vivo, Alopecurus myosuroides; conditions: rated visually about 3 weeks after treatment, 100% = plants have died, 0% = like control plants
Description: (§1) [table] a) Seeds of monocotyledonous and dicotyledonous weeds and crop plants are placed in sandy loam in plastic or organic plant pots, covered with soil and cultivated in a greenhouse under controlled growth conditions. 2 to 3 weeks after sowing, the test plants are treated at the one-leaf stage. The compounds of the invention, formulated in the form of wettable powders (WP) or as emulsion concentrates (EC), are then sprayed onto the green parts of the plants as aqueous suspension or emulsion with addition of 0.5% additive at a water application rate of 600 1/ha (converted). After the test plants have been kept in the greenhouse under optimum growth conditions for about 3 weeks, the activity of the preparations is rated visually in comparison to untreated controls. For example, 100% activity=the plants have died, 0% activity=like control plants. Tables A1 to A15 below show the effects of selected compounds of the general formula (I) according to Tables 1 and 2 on various harmful plants and an application rate corresponding to 320 g/ha and/or 80 g/ha, which were obtained by the experimental procedure mentioned above.

MATIN [1] = assay: as above; type: in vivo, Matricaria inodora; conditions: dosage 320 g/ha, visual rating about 3 weeks after treatment
Description: as §1

POAAN [2] = assay: Herbicidal post-emergence action 1b (twin sowing, 1280 g/ha); type: in vivo, Poa annua; conditions: dosage 1280 g/ha, visual rating about 3 weeks after treatment
Description: (§2) [table] b) Seeds of mono- and dicotyledonous weed plants are placed in plastic pots in sandy loam soil (twin sowing with one species each of mono- or dicotyledonous weed plants per pot), covered with soil and cultivated in a greenhouse under controlled growth conditions. 2 to 3 weeks after sowing, the test plants are treated at the one-leaf stage. The compounds of the invention, formulated in the form of wettable powders (WP) or as emulsion concentrates (EC), are applied to the green parts of the plants as aqueous suspension or emulsion with addition of 0.5% additive at a water application rate equivalent to 600 litres per hectare. After the test plants have been kept in the greenhouse under optimum growth conditions for about 3 weeks, the activity of the preparations is rated visually in comparison to untreated controls. For example, 100% activity=the plants have died, 0% activity=like control plants. Tables A16 to A21 below show the effects of selected compounds of the general formula (I) according to Tables 1 and 2 on various harmful plants and at an application rate corresponding to 1280 g/ha, which were obtained by the experimental procedure mentioned above.

MATIN [3] = assay: as above; type: in vivo, Matricaria inodora; conditions: dosage 1280 g/ha, visual rating about 3 weeks after treatment
Description: as §2

STEME [4] = assay: as above; type: in vivo, Stellaria media; conditions: dosage 1280 g/ha, visual rating about 3 weeks after treatment
Description: as §2

POAAN [5] = assay: Herbicidal pre-emergence action 2b (doubly sown, 1280 g/ha); type: in vivo, Poa annua; conditions: doubly sown pots, dosage 1280 g/ha, visual scoring after about 3 weeks
Source text: (§3) [table] b) Seeds of mono- and dicotyledonous weed plants are placed in plastic pots in sandy loam soil (doubly sown with one species each of mono- or dicotyledonous weed plants per pot) and covered with soil. The compounds of the invention, formulated in the form of wettable powders (WP) or as emulsion concentrates (EC), are then applied onto the surface of the covering soil as aqueous suspension or emulsion with addition of 0.5% additive at a water application rate equivalent to 600 litres per hectare. After the treatment, the pots are placed in a greenhouse and kept under good growth conditions for the trial plants. After about 3 weeks, the effect of the preparations is scored visually in comparison with untreated controls as percentages. For example, 100% activity=the plants have died, 0% activity=like control plants. Tables B16 to B21 below show the effects of selected compounds of the general formula (I) according to Tables 1 and 2 on various harmful plants and at an application rate corresponding to 1280 g/ha, which were obtained by the experimental procedure mentioned above.

DIGSA = assay: as above; type: in vivo, Digitaria sanguinalis; conditions: doubly sown pots, dosage 1280 g/ha, visual scoring after about 3 weeks
Source text: as §3

AMARE [6] = assay: as above; type: in vivo, Amaranthus retroflexus; conditions: doubly sown pots, dosage 1280 g/ha, visual scoring after about 3 weeks
Source text: as §3

MATIN [7] = assay: as above; type: in vivo, Matricaria inodora; conditions: doubly sown pots, dosage 1280 g/ha, visual scoring after about 3 weeks
Source text: as §3

STEME [8] = assay: as above; type: in vivo, Stellaria media; conditions: doubly sown pots, dosage 1280 g/ha, visual scoring after about 3 weeks
Source text: as §3

AMARE [9] = assay: Herbicidal pre-emergence action 2a (greenhouse pots, visual scoring); type: in vivo, Amaranthus retroflexus; conditions: dosage 320 g/ha, visual scoring after about 3 weeks vs untreated controls
Source text: (§4) [table] a) Seeds of monocotyledonous and dicotyledonous weed plants and crop plants are placed in plastic or organic plant pots and covered with soil. The compounds of the invention, formulated in the form of wettable powders (WP) or as emulsion concentrates (EC), are then applied onto the surface of the covering soil as aqueous suspension or emulsion with addition of 0.5% additive at a water application rate of 600 1/ha (converted). After the treatment, the pots are placed in a greenhouse and kept under good growth conditions for the trial plants. After about 3 weeks, the effect of the preparations is scored visually in comparison with untreated controls as percentages. For example, 100% activity=the plants have died, 0% activity=like control plants. Tables B1 to B15 below show the effects of selected compounds of the general formula (I) according to Tables 1 and 2 on various harmful plants and an application rate corresponding to 320 g/ha and/or 80 g/ha, which were obtained by the experimental procedure mentioned above.

MATIN [10] = assay: as above; type: in vivo, Matricaria inodora; conditions: dosage 320 g/ha, visual scoring after about 3 weeks vs untreated controls
Source text: as §4

ECHCG = assay: Herbicidal pre-emergence action 2b (doubly sown, 1280 g/ha); type: in vivo, Echinochloa crus-galli; conditions: doubly sown pots, dosage 1280 g/ha, visual scoring after about 3 weeks
Source text: as §3

For O=C(O)COc1nn(-c2cnccn2)c(-c2ccc(F)nc2)c1C1CC1 [Example I-83], the “Post-emergence action against ALOMY in %” value (ALOMY; Dosage 80 g/ha) was 80%, the “Post-emergence action against ALOMY in %” value (ALOMY; Dosage 320 g/ha) was 80% and the “Post-emergence action against MATIN in %” value (MATIN [1]) was 80%.
In the case of CCOC(=O)COc1nn(-c2cnccn2)c(-c2ccc(F)nc2)c1[N+](=O)[O-] [Example I-50], the “Post-emergence action at 1280 g/ha against POAAN in %” value (POAAN [2]) was 90%, the “Post-emergence action at 1280 g/ha against MATIN in %” value (MATIN [3]) was 90% and the “Post-emergence action at 1280 g/ha against STEME in %” value (STEME [4]) was 90%. The “Pre-emergence action at 1280 g/ha against POAAN in %” value (POAAN [5]) was 100%, the “Pre-emergence action at 1280 g/ha against DIGSA in %” value (DIGSA) was 100% and the “Pre-emergence action at 1280 g/ha against AMARE in %” value (AMARE [6]) was 100%. The “Pre-emergence action at 1280 g/ha against MATIN in %” value (MATIN [7]) was 90% and the “Pre-emergence action at 1280 g/ha against STEME in %” value (STEME [8]) was 90%.
CCOC(=O)COc1nn(-c2nccnc2F)c(-c2ccc(F)nc2)c1Br [Example I-76] was tested, and the “Pre-emergence action against AMARE in %” value (AMARE [9]) was 90% and the “Pre-emergence action against MATIN in %” value (MATIN [10]) was 90%.
With O=C(O)COc1nn(-c2cnccn2)c(-c2ccc(F)c(F)c2)c1Br [Example I-41] the “Post-emergence action at 1280 g/ha against POAAN in %” value (POAAN [2]) was 100%, the “Post-emergence action at 1280 g/ha against MATIN in %” value (MATIN [3]) was 90% and the “Pre-emergence action at 1280 g/ha against POAAN in %” value (POAAN [5]) was 100%. For the same compound, the “Pre-emergence action at 1280 g/ha against DIGSA in %” value (DIGSA) was 100%, the “Pre-emergence action at 1280 g/ha against ECHCG in %” value (ECHCG) was 100% and the “Pre-emergence action at 1280 g/ha against AMARE in %” value (AMARE [6]) was 100%. For the same compound, the “Pre-emergence action at 1280 g/ha against MATIN in %” value (MATIN [7]) was 100% and the “Pre-emergence action at 1280 g/ha against STEME in %” value (STEME [8]) was 100%.
